Laboratory results published in patent publication US9796704B2, “Substituted quinazolines as receptor-type kinase inhibitors” (Symphony Evolution, Inc., priority 2002, dated 2017).
Where two headings read alike, the source gives them in different places.

Key:
KDR = KDR (Homo sapiens (Human), UniProt P35968); assay: KDR kinase inhibition, luciferase-coupled chemiluminescent assay (LCCA)
Protocol: (§1) Kinase activity and compound inhibition are investigated using one or more of the three assay formats described below. The ATP concentrations are selected near its Michaelis-Menten constant (KM) for each individual kinase. Dose-response experiments are performed at ten different inhibitor concentrations in a 384-well plate format. […] Typically H is close to unity.
(§2) In the LCCA assays, kinase activity is measured by the ATP consumption that is accurately measured by luciferase-coupled chemiluminescence. Greiner 384-well white clear bottom medium binding plates are used for LCCA. Briefly the kinase reaction is initiated by mixing compounds, ATP and kinases in a 20 μL volume. At the end of the kinase reaction, a 20 μL luciferase-luciferin mix is added and the chemiluminescent signal is read on a Wallac Victor^2 reader.

EGFR = EGFR (Homo sapiens (Human), UniProt P00533); assay: EGFR kinase inhibition, luciferase-coupled chemiluminescent assay (LCCA)
Protocol: as §1, §2

ErbB2 = ErbB2 (Homo sapiens (Human), UniProt P04626); assay: ErbB2 kinase inhibition, AlphaScreen; assay type: biochemical
Protocol: Kinase activity and compound inhibition are investigated using one or more of the three assay formats described below. The ATP concentrations are selected near its Michaelis-Menten constant (KM) for each individual kinase. Dose-response experiments are performed at ten different inhibitor concentrations in a 384-well plate format. […] These parameters are obtained by nonlinear regression algorithm built into ActivityBase software (available from ID Business Solutions Ltd., of Guildford, Surrey, UK). ^33P Phosphoryl Transfer Assay (Radiometric)

EphB4 = EphB4 (Homo sapiens (Human), UniProt P54760); assay: EphB4 kinase inhibition, 33P phosphoryl transfer assay (radiometric); assay type: biochemical
Chain of EphB4 (P54760 605-890): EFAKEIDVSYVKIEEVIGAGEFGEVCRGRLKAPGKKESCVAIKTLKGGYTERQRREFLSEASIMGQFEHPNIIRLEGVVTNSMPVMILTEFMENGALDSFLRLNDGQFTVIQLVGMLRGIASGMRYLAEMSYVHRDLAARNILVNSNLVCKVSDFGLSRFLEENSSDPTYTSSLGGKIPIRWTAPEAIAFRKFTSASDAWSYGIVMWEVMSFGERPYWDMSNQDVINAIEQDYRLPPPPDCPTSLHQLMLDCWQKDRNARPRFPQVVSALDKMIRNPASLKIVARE

EphA2 = EphA2 (Homo sapiens (Human), UniProt P29317); assay: EphA2 kinase inhibition, luciferase-coupled chemiluminescent assay (LCCA)
Chain of EphA2 (P29317 598-890): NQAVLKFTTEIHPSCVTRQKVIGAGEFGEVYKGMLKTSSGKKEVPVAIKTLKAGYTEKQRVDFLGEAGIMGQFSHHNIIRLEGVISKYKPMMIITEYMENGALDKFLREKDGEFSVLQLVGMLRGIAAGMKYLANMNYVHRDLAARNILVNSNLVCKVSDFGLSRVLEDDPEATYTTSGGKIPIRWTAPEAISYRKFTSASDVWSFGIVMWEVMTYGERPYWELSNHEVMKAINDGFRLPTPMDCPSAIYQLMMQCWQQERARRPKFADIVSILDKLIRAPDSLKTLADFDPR
Protocol: as §1, §2

Chain of KDR (P35968 807-1356): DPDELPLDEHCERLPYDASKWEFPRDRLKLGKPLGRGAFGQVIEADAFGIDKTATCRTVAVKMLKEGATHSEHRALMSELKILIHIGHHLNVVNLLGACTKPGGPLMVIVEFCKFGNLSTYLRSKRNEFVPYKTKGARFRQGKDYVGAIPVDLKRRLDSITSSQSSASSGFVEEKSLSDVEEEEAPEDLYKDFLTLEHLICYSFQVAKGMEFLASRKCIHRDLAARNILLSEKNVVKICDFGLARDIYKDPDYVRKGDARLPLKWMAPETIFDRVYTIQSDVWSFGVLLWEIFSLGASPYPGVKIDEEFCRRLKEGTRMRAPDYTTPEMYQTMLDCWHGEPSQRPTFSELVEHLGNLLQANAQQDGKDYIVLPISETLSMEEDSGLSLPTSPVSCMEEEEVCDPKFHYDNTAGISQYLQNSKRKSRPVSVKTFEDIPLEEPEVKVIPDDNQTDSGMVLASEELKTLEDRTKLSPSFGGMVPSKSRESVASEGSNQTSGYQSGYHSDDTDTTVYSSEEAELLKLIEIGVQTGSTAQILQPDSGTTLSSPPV

| IC50 (KDR) | IC50 (EGFR) | IC50 (ErbB2) | IC50 (EphB4) | IC50 (EphA2) | IC50 (KDR; read-out: KDR IC50) | IC50 (EGFR; read-out: EGFR IC50) | IC50 (EphA2; read-out: EphA2 IC50) | Molecule |
| --- | --- | --- | --- | --- | --- | --- | --- | --- |
| 50 to 1000 nM | < 50 nM | < 50 nM | < 50 nM | 50 to 1000 nM | – | – | – | COc1cc2c(Nc3ccc(Cl)c(Cl)c3)ncnc2cc1OCC1CN(C(=NC#N)N2CCCCC2)CCO1 (stereo in doubt) [Example 216, [(1E)-[2-({[4-[(3,4-dichlorophenyl)amino]-6-(methyloxy)quinazolin-7-yl]oxy}methyl)morpholin-4-yl](piperidin-1-yl)methylidene]cyanamide] |
| – | – | < 50 nM | < 50 nM | – | < 50 nM | < 50 nM | < 50 nM | COc1cc2c(Nc3ccc(Cl)c(Cl)c3)ncnc2cc1OCc1noc(C2CCCCN2C(=O)OC(C)(C)C)n1 (stereo not shown) [Example 196, 1,1-dimethylethyl 2-[3-({[4-[(3,4-dichlorophenyl)amino]-6-(methyloxy)quinazolin-7-yl]oxy}methyl)-1,2,4-oxadiazol-5-yl]piperidine-1-carboxylate] |
| – | – | < 50 nM | < 50 nM | – | < 50 nM | < 50 nM | < 50 nM | COc1cc2c(Nc3ccc(Cl)c(Cl)c3)ncnc2cc1OCc1nc(-c2ccc(N3CCCC3)cc2)cs1 [Example 198, N-(3,4-dichlorophenyl)-6-(methyloxy)-7-({[4-(4-pyrrolidin-1-ylphenyl)-1,3-thiazol-2-yl]methyl}oxy)quinazolin-4-amine] |
| – | – | < 50 nM | < 50 nM | – | < 50 nM | < 50 nM | < 50 nM | CCN(CC)c1ccc(-c2csc(COc3cc4ncnc(Nc5ccc(Cl)c(Cl)c5)c4cc3OC)n2)cc1 [Example 199, N-(3,4-dichlorophenyl)-7-[({4-[4-(diethylamino)phenyl]-1,3-thiazol-2-yl}methyl)oxy]-6-(methyloxy)quinazolin-4-amine] |
| – | – | < 50 nM | < 50 nM | – | – | < 50 nM | 50 to 1000 nM | COc1cc2c(Nc3ccc(Cl)c(Cl)c3)ncnc2cc1OCc1nc(-c2ccccn2)cs1 [Example 202, N-(3,4-dichlorophenyl)-6-(methyloxy)-7-{[(4-pyridin-2-yl-1,3-thiazol-2-yl)methyl]oxy}quinazolin-4-amine] |
| – | – | < 50 nM | < 50 nM | – | – | < 50 nM | 50 to 1000 nM | COc1cc2c(Nc3ccc(Cl)c(Cl)c3)ncnc2cc1OCc1nc(CN2CCN(C)CC2)cs1 [Example 207, N-(3,4-dichlorophenyl)-6-(methyloxy)-7-[({4-[(4-methylpiperazin-1-yl)methyl]-1,3-thiazol-2-yl}methyl)oxy]quinazolin-4-amine] |
| – | – | < 50 nM | < 50 nM | – | – | < 50 nM | 50 to 1000 nM | COc1cc2c(Nc3ccc(Cl)c(Cl)c3)ncnc2cc1OCc1nc(N2CCN(C(=O)OC(C)(C)C)CC2)no1 [Example 215, 1,1-dimethylethyl 4-[5-({[4-[(3,4-dichlorophenyl)amino]-6-(methyloxy)quinazolin-7-yl]oxy}methyl)-1,2,4-oxadiazol-3-yl]piperazine-1-carboxylate] |
| – | – | – | < 50 nM | – | < 50 nM | < 50 nM | 50 to 1000 nM | COc1cc2c(Nc3ccc(Cl)c(Cl)c3)ncnc2cc1OCc1noc(-c2ccccc2)n1 [Example 235, N-(3,4-dichlorophenyl)-6-(methyloxy)-7-{[(5-phenyl-1,2,4-oxadiazol-3-yl)methyl]oxy}quinazolin-4-amine] |
| – | – | – | 50 to 1000 nM | – | < 50 nM | < 50 nM | 50 to 1000 nM | CCN1CCCC(c2nc(COc3cc4ncnc(Nc5ccc(Cl)c(Cl)c5)c4cc3OC)no2)C1 (stereo not shown) [Example 239, N-(3,4-dichlorophenyl)-7-({[5-(1-ethylpiperidin-3-yl)-1,2,4-oxadiazol-3-yl]methyl}oxy)-6-(methyloxy)quinazolin-4-amine] |
| – | – | – | < 50 nM | – | < 50 nM | < 50 nM | < 50 nM | CCN1CCC(c2nc(COc3cc4ncnc(Nc5ccc(Cl)c(Cl)c5)c4cc3OC)cs2)CC1 [Example 242, N-(3,4-dichlorophenyl)-7-({[2-(1-ethylpiperidin-4-yl)-1,3-thiazol-4-yl]methyl}oxy)-6-(methyloxy)quinazolin-4-amine] |

More lines, now with the values behind:

| Molecule | IC50 (KDR) | IC50 (EGFR) | IC50 (ErbB2) | IC50 (EphB4) | IC50 (EphA2) | IC50 (KDR; read-out: KDR IC50) | IC50 (EGFR; read-out: EGFR IC50) | IC50 (EphA2; read-out: EphA2 IC50) |
| --- | --- | --- | --- | --- | --- | --- | --- | --- |
| COc1cc2c(Nc3cc(Cl)c(Cl)cc3F)ncnc2cc1O[C@H]1CO[C@H]2[C@@H]1OC[C@@H]2OC [Example 69, 1,4:3,6-dianhydro-2-O-[4-[(4,5-dichloro-2-fluorophenyl)amino]-6-(methyloxy)quinazolin-7-yl]-5-O-methyl-L-iditol] | – | – | < 50 nM | < 50 nM | – | < 50 nM | < 50 nM | < 50 nM |
| COc1cc2c(Nc3ccc(Br)c(Cl)c3)ncnc2cc1O[C@H]1CO[C@@H]2CCO[C@H]12 [Example 77, 1,4:3,6-dianhydro-2-O-[4-[(4-bromo-3-chlorophenyl)amino]-6-(methyloxy)quinazolin-7-yl]-5-deoxy-D-xylo-hexitol] | – | – | < 50 nM | < 50 nM | – | – | < 50 nM | 50 to 1000 nM |
| COc1cc2c(Nc3ccc(Cl)c(Cl)c3)ncnc2cc1O[C@@H]1CO[C@@H]2[C@H]1OC[C@H]2F [Example 119, 1,4:3,6-dianhydro-2-deoxy-5-O-[4-[(3,4-dichlorophenyl)amino]-6-(methyloxy)quinazolin-7-yl]-2-fluoro-D-iditol] | – | – | < 50 nM | < 50 nM | – | < 50 nM | < 50 nM | < 50 nM |
| COc1cc2c(Nc3cc(Br)cc(C(F)(F)F)c3)ncnc2cc1O[C@@H]1CO[C@@H]2[C@H]1OC[C@H]2F [Example 127, 1,4:3,6-dianhydro-5-O-[4-{[3-bromo-5-(trifluoromethyl)phenyl]amino}-6-(methyloxy)quinazolin-7-yl]-2-deoxy-2-fluoro-D-iditol] | – | – | < 50 nM | < 50 nM | – | < 50 nM | < 50 nM | < 50 nM |
| COc1cc2c(Nc3ccc(Cl)c(Cl)c3)ncnc2cc1OCc1noc(C2CCCCN2C)n1 (stereo not shown) [Example 154, N-(3,4-dichlorophenyl)-6-(methyloxy)-7-({[5-(1-methylpiperidin-2-yl)-1,2,4-oxadiazol-3-yl]methyl}oxy)quinazolin-4-amine] | – | – | < 50 nM | < 50 nM | – | – | < 50 nM | – |
| COc1cc2c(Nc3ccc(Cl)c(Cl)c3)ncnc2cc1OCc1cc(C)on1 [Example 160, N-(3,4-dichlorophenyl)-7-{[(5-methylisoxazol-3-yl)methyl]oxy}-6-(methyloxy)quinazolin-4-amine] | – | – | < 50 nM | < 50 nM | – | – | < 50 nM | – |
| COc1cc2c(Nc3ccc(Cl)c(Cl)c3)ncnc2cc1OCc1ccc2nonc2c1 [Example 163, 7-[(2,1,3-benzoxadiazol-5-ylmethyl)oxy]-N-(3,4-dichlorophenyl)-6-(methyloxy)quinazolin-4-amine] | – | – | < 50 nM | < 50 nM | – | – | < 50 nM | – |
| COc1cc2c(Nc3ccc(Cl)c(Cl)c3)ncnc2cc1OCc1noc(-c2ccc(C(F)(F)F)cc2)n1 [Example 167, N-(3,4-dichlorophenyl)-6-(methyloxy)-7-[({5-[4-(trifluoromethyl)phenyl]-1,2,4-oxadiazol-3-yl}methyl)oxy]quinazolin-4-amine] | – | – | < 50 nM | < 50 nM | – | – | < 50 nM | < 50 nM |
| COc1cc2c(Nc3ccc(Cl)c(Cl)c3)ncnc2cc1OCc1cscn1 [Example 170, N-(3,4-dichlorophenyl)-6-(methyloxy)-7-[(1,3-thiazol-4-ylmethyl)oxy]quinazolin-4-amine] | – | – | < 50 nM | < 50 nM | – | – | < 50 nM | < 50 nM |
| COc1cc2c(Nc3ccc(Cl)c(Cl)c3)ncnc2cc1OCc1c(-c2ccccc2)nn(C)c1Cl [Example 175, 7-{[(5-chloro-1-methyl-3-phenyl-1H-pyrazol-4-yl)methyl]oxy}-N-(3,4-dichlorophenyl)-6-(methyloxy)quinazolin-4-amine] | – | – | < 50 nM | < 50 nM | – | – | < 50 nM | – |
| COc1cc2c(Nc3ccc(Cl)c(Cl)c3)ncnc2cc1OCC1CCCO1 (stereo not shown) [Example 183, N-(3,4-dichlorophenyl)-6-(methyloxy)-7-[(tetrahydrofuran-2-ylmethyl)oxy]quinazolin-4-amine] | – | – | < 50 nM | < 50 nM | – | – | < 50 nM | 50 to 1000 nM |
| COc1cc2c(Nc3ccc(Cl)c(Cl)c3)ncnc2cc1OCC1CCC1 [Example 187, 7-[(cyclobutylmethyl)oxy]-N-(3,4-dichlorophenyl)-6-(methyloxy)quinazolin-4-amine] | – | – | < 50 nM | < 50 nM | – | – | < 50 nM | 50 to 1000 nM |
| COc1cc2c(Nc3ccc(Cl)c(Cl)c3)ncnc2cc1OCCN1C(=O)c2ccccc2C1=O [Example 193, 2-(2-{[4-[(3,4-dichlorophenyl)amino]-6-(methyloxy)quinazolin-7-yl]oxy}ethyl)-1H-isoindole-1,3(2H)-dione] | – | – | < 50 nM | < 50 nM | – | < 50 nM | < 50 nM | 50 to 1000 nM |
| N-(3,4-dichlorophenyl)-7-({[2-(1-ethylpiperidin-4-yl)-1,3-thiazol-4-yl]methyl}oxy)-6-(methyloxy)quinazolin-4-amine hydrochloride [Example 37] | – | – | < 50 nM | 50 to 1000 nM | – | – | < 50 nM | < 50 nM |
